By IC50 is commonly meant the concentration needed to halve the response being measured.

Data on 24 compounds can be found in patent publication US10227333B2, “Inhibition of OLIG2 activity” (Curtana Pharmaceuticals, Inc., priority 2015, dated 2019).

Assay [1] relates to GBM8 cells. Nature of the assay: GBM8 viability assay (Cell Titer Glo luminescence). The format is cell-based. The following applies: 72 h; human glioblastoma neurosphere cells GBM8, 3 days incubation at 37° C., inhibition of cell growth by Cell Titer Glo luminescence; read-out: FBM8 (IC50). Here is the method:
(§1) Cell culture medium was prepared from a NSA proliferation kit (Neurocult) and NeuroCult supplements (Stemcell Tech Cat. #05751) and treated with 20 μL of 10 μg/mL rh EGF, 10 μL of 10 μg/mL rh bFGF and 10 μL of 0.2% Heparin. In this medium, human glioblastoma cells were cultured in ultra-low attachment tissue culture flasks until 1×10^6 cells ml was achieved (GBM4 and GBM8 are distinct neuro sphere cell cultures derived from these human patient tissues). GBM4 and GBM8 cells were dissociated and 10 mL of media containing 4000 human glioblastoma cells per 90 uL were transferred to an ultra-low binding 96-well plate and incubated at 37° C. overnight. On the following day, 10 μL of a 1% DMSO solution of test compound in assay medium was added to wells containing the cell suspension and the mixture incubated at 37° C. for 3 days. At this time, the plate was removed from the incubator and allowed to reach room temperature. After about 30 minutes, 50 μL of Cell Titer Glo solution was added to each well and the plate shaken for 1 minute at low speed. After 10 minutes luminescence was recorded using a Tecan Safire2 reader.
(§2) Reduction in luminescence compared to DMSO only control wells was used to determine the percentage inhibition of cell growth. IC50s were calculated using the % inhibition of luminescence for serial dilutions of compounds fitted to a 4-parameter fit within the Prism (San Diego) curve fitting program.
In general terms: ATP-based viability assays read luminescence as a measure of living cells.

Assay [2] concerns GBM4 cells. As to the kind of experiment: GBM4 viability assay (Cell Titer Glo luminescence). It counts as cell-based. The following applies: 72 h; human glioblastoma neurosphere cells GBM4, 3 days incubation at 37° C., inhibition of cell growth by Cell Titer Glo luminescence. The method, then: as §1, §2

As to `CCN1CCCC(Nc2cc(C)nc(NC(=N)Nc3ccc(Cl)c(Cl)c3)n2)C1` (racemic) [Compound 7, (±)-2-[3-(3,4-dichlorophenyl)guanidino]-4-(1-ethyl-3-piperidylamino)-6-methylpyrimidine], the IC50 in assay [1] and in assay [2] was below 10 µM in each case. For `Cc1cc(Oc2ccncc2)nc(NC(=N)Nc2ccc(Cl)c(Cl)c2)n1` [Compound 8, 1-(3,4-dichlorophenyl)-3-[6-methyl-4-(4-pyridyloxy)-2-pyrimidinyl]guanidine], the IC50 in assay [1] and in assay [2] was above 30 µM in each case. As to `Cc1cc(NC2CCNCC2)nc(NC(=N)Nc2ccc(Cl)c(Cl)c2)n1` [Compound 9, 2-[3-(3,4-dichlorophenyl)guanidino]-6-methyl-4-(4-piperidylamino)pyrimidine], the 50% inhibitory concentration (IC50) in assay [1] and in assay [2] was above 30 µM throughout.

As for `Cc1cc(N[C@H]2CCCNC2)nc(NC(=N)Nc2ccc(Cl)c(Cl)c2)n1` [Compound 10, (5)-1-(3,4-dichlorophenyl)-3-(4-methyl-6-(piperidin-3-ylamino)pyrimidin-2-yl)guanidine], the concentration for half-maximal inhibition (IC50) in assay [1] and in assay [2] was below 10 µM in each case. In the case of `Cc1cc(N[C@@H]2CCCNC2)nc(NC(=N)Nc2ccc(Cl)c(Cl)c2)n1` [Compound 11, (R)-1-(3,4-dichlorophenyl)-3-(4-methyl-6-(piperidin-3-ylamino)pyrimidin-2-yl)guanidine], the IC50 in assay [1] and in assay [2] was below 10 µM in each case. Regarding `CCN1CCC[C@@H](Nc2cc(C)nc(NC(=N)Nc3ccc(Cl)c(Cl)c3)n2)C1` [Compound 12, 4-[(3R)-1-ethyl-3-piperidylamino]-2-[3-(3,4-dichlorophenyl)guanidino]-6-methyl-pyrimidine], the IC50 in assay [1] and in assay [2] was below 10 µM each time. As for `Cc1cc(Oc2cccnc2)nc(NC(=N)Nc2ccc(Cl)c(Cl)c2)n1` [Compound 13, 1-(3,4-dichlorophenyl)-3-[6-methyl-4-(3-pyridyloxy)-2-pyrimidinyl]guanidine], the IC50 was above 30 µM in assay [1] and 10 to 30 µM in assay [2].

With `Cc1cc(Nc2cccnc2)nc(NC(=N)Nc2ccc(Cl)c(Cl)c2)n1` [Compound 14, 2-[3-(3,4-dichlorophenyl)guanidino]-6-methyl-4-(3-pyridylamino)pyrimidine], the IC50 in assay [1] and in assay [2] was below 10 µM in each case.

Consider `Cc1cc(NC2CCCCC2)nc(NC(=N)Nc2ccc(Cl)c(Cl)c2)n1` [Compound 15, 4-(cyclohexylamino)-2-[3-(3,4-dichlorophenyl)guanidino]-6-methylpyrimidine], for which the IC50 in assay [1] and in assay [2] was below 10 µM in each case.

On to `Cc1cc(NC2CCOCC2)nc(NC(=N)Nc2ccc(Cl)c(Cl)c2)n1` [Compound 16, 2-[3-(3,4-dichlorophenyl)guanidino]-6-methyl-4-(tetrahydro-2H-pyran-4-ylamino)-pyrimidine], for which the IC50 in assay [1] is below 10 µM; in assay [2], 10 to 30 µM. For `Cc1cc(OC2CCCNC2)nc(NC(=N)Nc2ccc(Cl)c(Cl)c2)n1` (stereo not drawn) [Compound 17, 1-(3,4-dichlorophenyl)-3-[6-methyl-4-(3-piperidyloxy)-2-pyrimidinyl]guanidine], the IC50 in assay [1] was below 10 µM; in assay [2], 10 to 30 µM. `CCN1CCCC(Nc2cc(C)nc(NC(=N)N(C)c3ccc(Cl)c(Cl)c3)n2)C1` (stereo not drawn) [Compound 21, 2-[3-(3,4-dichlorophenyl)-3-methylguanidino]-4-[1-ethyl-3-piperidylamino]-6-methylpyrimidine]: the IC50 in assay [1] is above 30 µM; in assay [2], 10 to 30 µM. On the same counts, the results for `CCN1CCC[C@H](Nc2cc(C)nc(NC(=N)Nc3ccc(Cl)c(Cl)c3)n2)C1` [Compound 24, (S)-1-(3,4-dichlorophenyl)-3-(4-(1-ethylpiperidin-3-ylamino)-6-methylpyrimidin-2-yl)guanidine] are below 10 µM and below 10 µM.

Consider `CCN1CCC(Oc2cc(C)nc(NC(=N)Nc3ccc(Cl)c(Cl)c3)n2)CC1` [Compound 25, 1-(3,4-dichlorophenyl)-3-[4-(1-ethyl-4-piperidyloxy)-6-methyl-2-pyrimidinyl]-guanidine], for which the IC50 in assay [1] and in assay [2] was 10 to 30 µM in each case. As to `CCN1CCC(Nc2cc(C)nc(NC(=N)Nc3ccc(Cl)c(Cl)c3)n2)CC1` [Compound 26, 2-[3-(3,4-dichlorophenyl)guanidino]-4-(1-ethyl-4-piperidylamino)-6-methylpyrimidine], the IC50 in assay [1] and in assay [2] was below 10 µM throughout. Consider `Cc1cc(N2CCN(C)CC2)nc(NC(=N)Nc2ccc(Cl)c(Cl)c2)n1` [Compound 27, 1-(3,4-dichlorophenyl)-3-[6-methyl-4-(4-methyl-1-piperazinyl)-2-pyrimidinyl]-guanidine], for which the IC50 is below 10 µM in assay [1] and 10 to 30 µM in assay [2]. As for `Cc1cc(N(C)C)nc(NC(=N)Nc2ccc(Cl)c(Cl)c2)n1` [Compound 28, (N-methyl{2-[3-(3,4-dichlorophenyl)guanidino]-6-methyl-4-pyrimidinyl}amino)-methane], the half-inhibitory concentration (IC50) in assay [1] and in assay [2] was below 10 µM each time. For `Cc1cc(N2CCOCC2)nc(NC(=N)Nc2ccc(Cl)c(Cl)c2)n1` [Compound 29, 1-(3,4-dichlorophenyl)-3-(4-methyl-6-morpholino-2-pyrimidinyl)guanidine], the IC50 in assay [1] and in assay [2] was below 10 µM in each case. In the case of `Cc1cc(NCCCN(C)C)nc(NC(=S)Nc2ccc(Cl)c(Cl)c2)n1` [Compound 31a, 1-{2-[3-(3,4-Dichlorophenyl)thioureido]-6-methyl-4-pyrimidinylamino}-3-(dimethylamino)propane], in assay [1], the 50% inhibitory concentration (IC50) is below 10 µM. On the same count and under the same terms, next, `Cc1cc(NCCCN(C)C)nc(N/C(=N/C#N)Nc2ccc(Cl)c(Cl)c2)n1` [Compound 32, 1-(3,4-Dichlorophenyl)-3-{4-[3-(dimethylamino)propylamino]-6-methyl-2-pyrimidinyl}-2-guanidinecarbonitrile]: below 10 µM; `C/N=C(\Nc1ccc(Cl)c(Cl)c1)Nc1nc(C)cc(NCCCN(C)C)n1` [Compound 33, 1-{2-[3-(3,4-Dichlorophenyl)-2-methylguanidino]-6-methyl-4-pyrimidinylamino}-3-(dimethylamino)propane]: above 30 µM; `Cc1cc(NCCCN(C)C)nc(/N=C(/Nc2ccc(Cl)c(Cl)c2)N(C)C)n1` [Compound 34, 1-{2-[3-(3,4-Dichlorophenyl)-1,1-dimethylguanidino]-6-methyl-4-pyrimidinylamino}-3-(dimethylamino)propane]: above 30 µM. On the same count and under the same terms, next, `C/N=C(\Nc1ccc(Cl)c(Cl)c1)Nc1cc(C)cc(NCCCN(C)C)n1` [Compound 35, 1-{6-[3-(3,4-Dichlorophenyl)-2-methylguanidino]-4-methyl-2-pyridylamino}-3-(dimethylamino)propane]: 10 to 30 µM; `Cc1cc(/N=C(/Nc2ccc(Cl)c(Cl)c2)N(C)C)nc(NCCCN(C)C)c1` [Compound 39, 1-{6-[3-(3,4-Dichlorophenyl)-1,1-dimethylguanidino]-4-methyl-2-pyridylamino}-3-(dimethylamino)propane]: above 30 µM.
